These are literature values, as cited in patent US11532831B1, “Redox-active compounds and uses thereof” (Palo Alto Research Center Incorporated, priority 2021, dated 2022).

The conditions of data set [1]: cited from earlier work.
For data set [2] the following is noted: on platinum (footnote); cited from earlier work.

Consider “bis(trimethylammoniopropyl)ferrocene [BTMAP-Fc]”, for which, in data set [1], the “Solubility at pH 7” value is 1.9M. Consider “ethylenediaminetetraacetatoferrate(2-) (Fe(II)-EDTA)/ethylenediaminetetraacetatoferrate(1-) (Fe(III)-EDTA) [Fe(EDTA)]”, for which, in data set [2], the Kinetic rate constant is 0.026 cm/s. “iron(II) (Fe^2+)/iron(III) (Fe^3+) [Fe^2+/Fe^3+]”: the “Solubility at pH 7” value in data set [1] is recorded as “insoluble”.

The Solubility is how much of the substance goes into solution per volume.
